This is an account of results in patent US11311514B2, “Pharmaceutical composition for preventing or treating pruritus, containing pyrazole derivative as active ingredient, and screening method for detecting same” (Seoul National University R&DB Foundation, priority 2017, dated 2022).

For data set [1], the target named is T1, MRGPR X1 (Homo sapiens, UniProt Q96LB2).
T1 construct: expressed in transfected cells
Put plainly: MRGPR X1 screening assay (calcium dye fluorescence, chloroquine-stimulated). In kind it is cell-based. The settings on record: Mrgpr X1 stable HEK 293T FRT cells; final 12 μM compound, 500 μM chloroquine, 0.2% DMSO. The protocol:
Human MRGPRX1 gene was sub-cloned in pcDNA5 FRT vector, which was transfected into HEK 293T FRT cells. The cells were cultured in a 37° C., 5% CO2 incubator for 48 hours.
To confirm the amount with which a single colony is well formed, the transfected cells were serially diluted and then transferred and distributed on 100 mm dish evenly. The medium was replaced with a fresh medium containing 50/g/ ? of hygromycin every 3-4 days. The cells were cultured until colonies were formed.
Once colonies were formed, only a single colony was transferred to a 24 well plate, followed by culture. Then, well grown cells were transferred to a 6 well plate, followed by culture. Antibiotic selection was performed. […]
First, MRGPR X1 stable cells were counted to make 8000 cells/well, followed by seeding in a Poly-D-Lysine coated plate 384 well black/clear plate. […]
Upon completion of the incubation, dye was discarded and Na-HEPES buffer was added thereto (25 ? /well) for washing, and then buffer was added thereto (25 ? /well) again. 25 ? of the primary candidate material was added to each well of the assay plate containing 25 ? of buffer, followed by reading the plate (final 12 μM compound, 500 μM chloroquine, 0.2% DMSO). […]
The experimental results were analyzed using a microplate reader (Flexstaion Π^384, Molecular Devices). […]

For data set [2], the system named is histamine mouse model. Description: Pruritus evaluation in histamine mouse model. The settings on record: 30 mg/kg intraperitoneal, 30 min before histamine 500 μg s.c. dorsal; control group 118.38. In kind it is in vivo, C57BL6 mice. The protocol: (§1) Seven week-old C57BL6 mice were placed in a new cage and adapted for 30 minutes before starting the experiment. As for the control group, 3% DMSO was dissolved in physiological saline (0.9% saline), which was intraperitoneally injected (50 ? /mouse). The animal model mice were intraperitoneally injected with the pharmaceutical composition of Example 1 (30 mg/kg) dissolved in physiological saline (0.9% saline) containing 3% DMSO (50 ? /mouse). The mice were also ? placed in the same cage above for 30 minutes.
(§2) Then, control and animal model mice were subcutaneously injected with 500 μg/50 ? of histamine on the dorsal side, and their behaviors were recorded with a digital video camera for 30 minutes. The number of scratches was recorded while playing back the recorded video file on a computer. A continuous action of scratching the skin from when the mouse lifted its hind foot off the floor and to when the mouse put it back on the floor was considered 1 scratch, and the number of scratches counted for 30 minutes was used as index for evaluating pruritus.

Data set [3] has as its system psoriatic mouse model (Aldara cream, 5% imiquimod). Description: Pruritus evaluation in psoriatic mouse model. In kind it is in vivo, C57BL6 mice. The settings on record: 30 mg/kg intraperitoneal on day 8 after 7 days Aldara cream; counted for 30 minutes; normal group 20.00, control group 71.00. The procedure:
First, a psoriatic mouse model was constructed. A psoriatic mouse model was prepared according to the instruction described Pain. 2016 November; 2536-2543. Zoletil (15 mg/kg) was mixed with saline at the ratio of 1:1 and then mixed with Rompun (5 mg/kg), which was intraperitoneally injected in 7-week-old C57BL6 mice to anesthetize the mice. The mouse back was primarily depilated in the size of 2.5×2 cm using a clipper, and then secondly depilated using a straight blade. Vaseline cream was rubbed on the depilated area of the normal group for 7 days using a cotton swap. Aldara cream (62.5 mg, 5% imiquimod) was rubbed on the depilated area of the control group and the experimental group for 7 days using a cotton swap.
as §2, with “Next, pruritus evaluation in the psoriatic mouse model was performed. On day 8, the normal group and” for “Then,”, “group” for “and animal model”, “intraperitoneally” for “subcutaneously”, “3% DMSO dissolved in physiological saline (0.9% saline) (50” for “500 μg/50”, “/mouse). […] 30 minutes later,” for “of histamine on the dorsal side, and”, “digital” for “digital video”

Data set [4] concerns mouse motor ability. Put plainly: Rota rod motor condition test. In kind it is in vivo. The settings on record: 30 mg/kg intraperitoneal, tested after 30 minutes; Rota rod speed 4 to 40. The protocol:
The test mouse was placed on the Rota rod device and then the speed was raised from 4 to 40 until the mouse fell. When the mouse fell, it was moved to a cage. The procedure was repeated three times a day for 3 consecutive days to adapt the mouse to the Rota rod device. After three days of adaptation, the mouse was moved to a cage where it was stabilized.
As for the control group, 3% DMSO was dissolved in physiological saline (0.9% saline), which was intraperitoneally injected (50 ? /mouse). The animal model mice were intraperitoneally injected with the pharmaceutical composition of Example 1 (30 mg/kg) dissolved in physiological saline (0.9% saline) containing 3% DMSO (50 ? /mouse). The mice were also placed in the same cage above for 30 minutes. The experiment above was repeated three times like the adaptation test above, and the average time of falling was calculated.

In data set [5] the test system is dry skin mouse model. Put plainly: Pruritus evaluation in dry skin mouse model. Format: in vivo, C57BL6 mice. The settings on record: 30 mg/kg intraperitoneal on Day 5 of acetone/ether/water treatment; recorded 30 min later; control group 130.00. The procedure:
First, a dry skin mouse model was constructed. A dry skin mouse model was prepared according to the instruction described Jpn J Pharmacol. 2002 March; 88(3):285-92. ENTOBAR® was mixed with physiological saline (0.9% saline) at the ratio of 1:1, which was intraperitoneally injected in 7-week-old C57BL6 mice (20 ? /mouse) to anesthetize the mice. Then, the hair of the right nape was shaved using a clipper. Ethyl ether and acetone were mixed at the ratio of 1:1. The mixture was soaked in absorbent cotton and the right nape was rubbed with the absorbent cotton for 1 minute. Then, absorbent cotton soaked with water was used to rub in the same way. This process was performed once in the morning and once in the afternoon for 5 days.
as §2, with “Next, pruritus evaluation in the dry skin mouse model was performed. In the afternoon on Day 5, the” for “Then,”, “group” for “and animal model”, “intraperitoneally” for “subcutaneously”, “3% DMSO dissolved in physiological saline (0.9% saline) (50” for “500 μg/50”, “/mouse). […] 30 minutes later,” for “of histamine on the dorsal side, and”, “digital” for “digital video”

The target of data set [6] is T2, human histamine 1 receptor (hH1R) (Homo sapiens, UniProt P35367).
T2 construct: expressed in transfected cells; host or cells: HEK 293T cells, transient transfection
Description: Human histamine 1 receptor antagonist assay (calcium dye fluorescence, histamine-stimulated). Format: cell-based. The settings on record: HEK 293T cells transiently expressing hH1R; final 12 μM compound, 1 μM histamine, 0.2% DMSO; control 5 μM diphenhydramine; read-out: reduction of fluorescence, taking the inhibition by histamine plus diphenhydramine as 100%. The protocol:
HEK 293T cells were transiently transfected with 2 μg of human histamine 1 receptor, followed by seeding at the density of 4000 cells/well. The cells were cultured in a 37° C., 5% CO2 incubator for 48 hours.
The subsequent procedure was performed using Biomex FX. After eliminating the medium, flo-3 AM dye dissolved in Na-HEPES buffer (5 mM KCl, 2 mM MgCl2, 140 mM NaCl, 10 mM NaOH-HEPES, pH7.2) at the concentration of 2.5 μM was added to the plate (25 ? /well) of the vehicle and experimental groups, and flo-3 AM dye dissolved in Na-HEPES buffer containing 5 uM diphenhydramine dissolved therein at the concentration of 2.5 μM was added to the plate (25 ? /well) of the control group, followed by culture in a 37° C., 5% CO2 incubator for 30 minutes.
During the culture, a compound plate was prepared. […]
Upon completion of the incubation, dye was discarded and Na-HEPES buffer was added thereto (25 ? /well) for washing, and then buffer was added thereto (25 ? /well) again (excluding control group wells). […] Finally, 25 ? of the compound was added to each well of the assay plate containing 25 ? of buffer, followed by reading the plate (final 12 μM compound, 1 μM histamine, 0.2% DMSO).
The experimental results were analyzed using a microplate reader (Flexstaion Π^384, Molecular Devices). Fluorescence assay was performed (Ex 488 nm, Em 535 nm) at the intervals of 3.2 seconds for 80 seconds. […]

Data set [7] can be described thus: Solubility in blood (selection of final compound). Format: physicochemical. To be noted: result in words; no method given.
In data set [8] the test system is chloroquine mouse model. Description: Pruritus evaluation in chloroquine mouse model. The settings on record: 30 mg/kg intraperitoneal, 30 min before chloroquine 200 μg s.c. dorsal; control group 425.00. In kind it is in vivo, C57BL6 mice. The procedure:
as §1
Then, control and animal model mice were subcutaneously injected with 200 μg/50 ? of chloroquine on the dorsal side, and their behaviors were recorded with a digital video camera for 30 minutes. The number of scratches was recorded while playing back the recorded video file on a computer. A continuous action of scratching the skin from when the mouse lifted its hind foot off the floor and to when the mouse put it back on the floor was considered 1 scratch, and the number of scratches counted for 30 minutes was used as index for evaluating pruritus.

T1 sequence (Q96LB2 whole entry): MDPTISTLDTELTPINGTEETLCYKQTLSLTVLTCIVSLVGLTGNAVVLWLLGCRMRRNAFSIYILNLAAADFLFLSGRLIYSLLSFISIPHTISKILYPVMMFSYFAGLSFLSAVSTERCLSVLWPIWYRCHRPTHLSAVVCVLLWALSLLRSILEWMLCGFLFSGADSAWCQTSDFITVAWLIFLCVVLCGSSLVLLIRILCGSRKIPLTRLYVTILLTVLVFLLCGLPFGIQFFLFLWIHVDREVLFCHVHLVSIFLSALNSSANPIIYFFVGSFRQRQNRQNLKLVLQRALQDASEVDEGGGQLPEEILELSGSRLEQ
T2 sequence (P35367 whole entry): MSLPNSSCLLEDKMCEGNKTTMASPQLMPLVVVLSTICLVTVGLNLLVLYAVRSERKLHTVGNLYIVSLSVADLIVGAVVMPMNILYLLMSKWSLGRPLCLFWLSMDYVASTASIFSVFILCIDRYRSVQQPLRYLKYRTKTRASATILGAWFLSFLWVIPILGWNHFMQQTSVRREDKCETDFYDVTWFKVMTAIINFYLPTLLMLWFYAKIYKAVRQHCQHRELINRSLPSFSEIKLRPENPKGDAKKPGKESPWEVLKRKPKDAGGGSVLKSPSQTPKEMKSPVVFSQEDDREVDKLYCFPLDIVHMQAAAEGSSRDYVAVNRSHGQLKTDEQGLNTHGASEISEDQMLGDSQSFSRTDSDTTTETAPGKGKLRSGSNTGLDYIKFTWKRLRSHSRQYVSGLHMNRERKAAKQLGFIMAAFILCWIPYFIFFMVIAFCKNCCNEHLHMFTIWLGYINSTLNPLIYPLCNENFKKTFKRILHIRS

With `Cc1ccc(-n2nc(C)cc2C(=O)NCCCC(=O)O)cc1` [Example 1], the “decline of fluorescence analysis result versus chloroquine alone” value in data set [1] is listed as “approximately 54%”. Moreover, the “average number of total scratches accumulated for 30 minutes” value in data set [2] was 39.90 times; in data set [5], 14.00 times; in data set [8], 150.50 times. Besides, in data set [3], the “average number of total scratches” value is recorded as 1.00. Also, the “motor condition ability (average time of falling) versus control group” value in data set [4] was “no significant difference”. Also, the inhibition at 12 µM in data set [6] is about 94%. Moreover, the solubility in blood result in data set [7] is “excellent solubility in blood”.

The term inhibition denotes the relative decrease from the control value, in per cent.
